Assays:
[1] = target: T1, CHO cells expressing human CB2 receptors (Homo sapiens, UniProt P34972); test: cell-based LANCE cAMP assay; details: forskolin-stimulated, RO-20-1724 present, FIG. 4
T1 construct: expressed in transfected cells; host or cells: CHO cells, stably transfected
Method: FIG. 4 relates to cAMP Assay Results. LANCE signal of CB2 ligands. Stably transfected CHO cells expressing human CB2 receptors were utilized to carry out the LANCE cAMP assay. […] Data is mean±SEM of all experiments of two or more performed in triplicate.
(§1) The antibodies are labeled with Alexa Fluor dye that is sensitive to energy emissions. Briefly, the cell-based LANCE cAMP assays were performed on 384-well ProxiPlates using CHO cells stably expressing the CB2 receptors at density of 2×10^3 cells per well in 5 μL of RPMI-1640 medium (Gibco Laboratories, Grand Island, N.Y.) containing 1% dialyzed FBS, 25 mM HEPES, […], and 200 μg/ml of […]. After incubation overnight, 2.5 μL of cAMP antibody and RO20-1724 (a phosphodiesterase inhibitor) in stimulation buffer (DPBS 1×, containing 0.1% BSA) was added to each well, followed by the addition of 2.5 μL of the compound plus the forskolin complex (an adenyl cyclase activator). After incubation at room temperature for 45 minutes, 10 μL of detection buffer was added into each well. The plate was then incubated at room temperature for 1 hour. The plate was then measured in a Synergy H1 hybrid reader (BioTek) with excitation at 340 nm and emission at 665 nm. The results represent at least two independent experiments each in triplicates. EC50 values were determined by nonlinear regression dose-response curve (GraphPad Prism 5).
as §1, with “Cyclic AMP levels were measured by performing the cell-based LANCE cAMP-384 kit assay (PerkinElmer) as previously described 13-14. The assay is based on the competition between the europium-labeled cAMP tracer complex and sample cAMP for binding sites on cAMP-specific antibodies. The antibodies” for “The antibodies”
The LANCE cAMP assay was carried out to measure the functional activities of our synthesized CB2 selective ligands as previously described 14. Briefly, the assay was performed on 384-well plates using CHO cells stably expressing CB2 receptors in the presence of phosphodiesterase inhibitor, RO-20-1724 and adenyl cyclase activator, forskolin.

[2] = tested on: osteoclast precursor RAW264.7 cells; assay type: cell-based
Method: FIGS. 6A and 6B relate to cAMP Assay Results. Cytotoxicity effects of the synthesized CB2 ligands. FIG. 5A: Cytotoxicity effects of compound 15. FIG. 5B: Cytotoxicity effects of compound 18. Osteoclast precursor RAW264.7 cells (1.5×10^3 cells/well) were seeded on 96-well plates. Cells were incubated with the indicated doses of compounds 15 and 18 for 48 hours. The percentage of cell survival was determined by the MTT assay. Data is the mean±SD of three experiments carried out in duplicate.
The cell-proliferation effect of our CB2 ligands on the osteoclast precursor RAW264.7 cells was assessed using MTT 3-(4,5-dimethylthiazol-2-yl)-2,5-diphenyltetrazolium bromide (Sigma, St. Louis, USA). […] Optical density was read at 540 nm and subtracted from the background at 720 nm. The effect of ligands on cell viability was expressed as percent cell viability, with vehicle-treated control cells set at 100% (Feng, R., et al., KD5170, a novel mercaptoketone-based histone deacetylase inhibitor, exerts antimyeloma effects by DNA damage and mitochondrial signaling. Mol Cancer Ther 2008, 7 (6), 1494-505).
The cytotoxicity assay was carried out to exclude that the high osteoclast formation inhibition effects were not due to the toxicity of the newly discovered compounds. The cytotoxic effects were measured by utilizing the MTT cell-viability assay. […]

T1 sequence (P34972 whole entry): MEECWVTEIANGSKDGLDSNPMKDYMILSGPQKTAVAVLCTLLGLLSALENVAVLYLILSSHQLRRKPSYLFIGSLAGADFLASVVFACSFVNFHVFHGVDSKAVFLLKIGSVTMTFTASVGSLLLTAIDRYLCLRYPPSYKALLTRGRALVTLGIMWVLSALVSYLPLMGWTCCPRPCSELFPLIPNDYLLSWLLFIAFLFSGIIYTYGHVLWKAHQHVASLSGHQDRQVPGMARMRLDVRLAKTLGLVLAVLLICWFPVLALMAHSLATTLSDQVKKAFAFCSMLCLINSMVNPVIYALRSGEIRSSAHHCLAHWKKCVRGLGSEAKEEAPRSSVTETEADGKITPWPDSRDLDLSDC

CB2 functional activity (LANCE cAMP signal) [1]	SMILES	cell viability as compared to the control group (MTT) [2]
CB2 selective agonist	CCN(CC)c1ccc(CN(Cc2cc(OC)c(OC)c(OC)c2)C(=O)c2cccs2)cc1 [Compound 11, N-(4-(diethylamino)benzyl)-N-(3,4,5-trimethoxybenzyl)thiophene-2-carboxamide]	–
inverse agonists	CCN(CC)c1ccc(CN(Cc2cc(OC)c(OC)c(OC)c2)S(=O)(=O)c2ccc(C=O)cc2)cc1 [Compound 18, N-(4-(diethylamino)benzyl)-4-formyl-N-(3,4,5-trimethoxybenzyl)benzenesulfonamide]	not significantly altered

SMILES	CB2 functional activity (LANCE cAMP signal) [1]	cell viability as compared to the control group (MTT) [2]
CCN(CC)c1ccc(CN(Cc2cc(OC)c(OC)c(OC)c2)S(=O)(=O)/C=C/c2ccccc2)cc1 [Compound 15, (E)-N-(4-(diethylamino)benzyl)-2-phenyl-N-(3,4,5-trimethoxybenzyl)ethene-1-sulfonamidebenzenesulfonamide]	inverse agonists	not significantly altered

Reference: patent US11059778B2, “Cannabinoid receptor CB2 ligand 4-(aminomethyl)-N, N-dialkylanilines” (UNIVERSITY OF PITTSBURGH—OF THE COMMONWEALTH SYSTEM OF …, priority 2015, dated 2021)
